Test results as given in the NIST ThermoML archive (doi:10.1021/acs.jced.8b00201).

Assay: xn = mol fraction of the nth substance listed
Conditions: 100 kPa, Liquid; for viscosity: Concentric cylinders viscometry; for mass density: Vibrating tube method

O=C1CCCCC1 [cyclohexanone] + CCCCCCCCO
Conditions	mass density [kg/m3]	viscosity [mPa·s]
293.15 K, x1 = 0.0803	831.3	7.76
293.15 K, x1 = 0.1519	837.4	6.62
293.15 K, x1 = 0.2388	845.2	5.58
293.15 K, x1 = 0.3427	855.4	4.48
293.15 K, x1 = 0.4378	865.6	3.72
293.15 K, x1 = 0.5606	880	2.97
293.15 K, x1 = 0.6498	891.6	2.57
293.15 K, x1 = 0.7407	904.5	2.33
293.15 K, x1 = 0.8422	920.4	2.28
293.15 K, x1 = 0.9377	937.4	2.25
293.15 K, x1 = 1	948.8	2.3
298.15 K, x1 = 0.0803	827.7	6.52
298.15 K, x1 = 0.1519	833.6	5.65
298.15 K, x1 = 0.2388	841.3	4.8
298.15 K, x1 = 0.3427	851.2	3.91
298.15 K, x1 = 0.4378	861.2	3.29
298.15 K, x1 = 0.5606	875.4	2.66
298.15 K, x1 = 0.6498	886.8	2.32
298.15 K, x1 = 0.7407	899.5	2.13
298.15 K, x1 = 0.8422	915.1	2.07
298.15 K, x1 = 0.9377	931.4	2.04
298.15 K, x1 = 1	943.1	2.09
303.15 K, x1 = 0.0803	824.1	5.54
303.15 K, x1 = 0.1519	829.8	4.87
303.15 K, x1 = 0.2388	837.4	4.17
303.15 K, x1 = 0.3427	847.2	3.44
303.15 K, x1 = 0.4378	857	2.94
303.15 K, x1 = 0.5606	871.1	2.42
303.15 K, x1 = 0.6498	882.3	2.16
303.15 K, x1 = 0.7407	894.9	1.97
303.15 K, x1 = 0.8422	910.4	1.9
303.15 K, x1 = 0.9377	926.6	1.87
303.15 K, x1 = 1	938.2	1.91
308.15 K, x1 = 0.0803	820.5	4.73
308.15 K, x1 = 0.1519	826.1	4.16
308.15 K, x1 = 0.2388	833.6	3.61
308.15 K, x1 = 0.3427	843.2	3.03
308.15 K, x1 = 0.4378	852.9	2.6
308.15 K, x1 = 0.5606	866.8	2.15
308.15 K, x1 = 0.6498	877.9	1.94
308.15 K, x1 = 0.7407	890.4	1.79
308.15 K, x1 = 0.8422	905.9	1.74
308.15 K, x1 = 0.9377	922	1.72
308.15 K, x1 = 1	933.5	1.75
313.15 K, x1 = 0.0803	816.8	4.07
313.15 K, x1 = 0.1519	822.4	3.6
313.15 K, x1 = 0.2388	829.7	3.12
313.15 K, x1 = 0.3427	839.2	2.63
313.15 K, x1 = 0.4378	848.8	2.3
313.15 K, x1 = 0.5606	862.5	1.95
313.15 K, x1 = 0.6498	873.6	1.75
313.15 K, x1 = 0.7407	886	1.64
313.15 K, x1 = 0.8422	901.3	1.6
313.15 K, x1 = 0.9377	917.3	1.57
313.15 K, x1 = 1	928.8	1.6
318.15 K, x1 = 0.0803	813.1	3.51
318.15 K, x1 = 0.1519	818.6	3.11
318.15 K, x1 = 0.2388	825.8	2.73
318.15 K, x1 = 0.3427	835.2	2.32
318.15 K, x1 = 0.4378	844.7	2.04
318.15 K, x1 = 0.5606	858.4	1.75
318.15 K, x1 = 0.6498	869.3	1.6
318.15 K, x1 = 0.7407	881.6	1.5
318.15 K, x1 = 0.8422	896.9	1.46
318.15 K, x1 = 0.9377	912.9	1.44
318.15 K, x1 = 1	924.4	1.46
323.15 K, x1 = 0.0803	809.5	3.03
323.15 K, x1 = 0.1519	814.9	2.73
323.15 K, x1 = 0.2388	822.1	2.42
323.15 K, x1 = 0.3427	831.5	2.09
323.15 K, x1 = 0.4378	841	1.85
323.15 K, x1 = 0.5606	854.6	1.6
323.15 K, x1 = 0.6498	865.5	1.46
323.15 K, x1 = 0.7407	877.9	1.37
323.15 K, x1 = 0.8422	893.2	1.34
323.15 K, x1 = 0.9377	909.2	1.32
323.15 K, x1 = 1	920.7	1.34

CCCCCCCCCO [nonan-1-ol] + O=C1CCCCC1
Conditions	mass density [kg/m3]	viscosity [mPa·s]
293.15 K, x2 = 0	827.5	11.41
293.15 K, x2 = 0.0813	833.2	9.78
293.15 K, x2 = 0.1582	839	8.31
293.15 K, x2 = 0.2378	845.5	6.98
293.15 K, x2 = 0.3573	856.3	5.42
293.15 K, x2 = 0.4381	864.3	4.61
293.15 K, x2 = 0.5589	877.9	3.69
293.15 K, x2 = 0.6488	889.3	3.2
293.15 K, x2 = 0.724	899.9	2.96
293.15 K, x2 = 0.8481	919.6	2.55
293.15 K, x2 = 0.9411	936.8	2.33
298.15 K, x2 = 0	824	9.43
298.15 K, x2 = 0.0813	829.6	8.15
298.15 K, x2 = 0.1582	835.2	6.94
298.15 K, x2 = 0.2378	841.5	5.92
298.15 K, x2 = 0.3573	852.1	4.68
298.15 K, x2 = 0.4381	860	4.01
298.15 K, x2 = 0.5589	873.3	3.21
298.15 K, x2 = 0.6488	884.6	2.8
298.15 K, x2 = 0.724	895	2.59
298.15 K, x2 = 0.8481	914.4	2.24
298.15 K, x2 = 0.9411	931.2	2.11
303.15 K, x2 = 0	820.5	7.86
303.15 K, x2 = 0.0813	825.9	6.78
303.15 K, x2 = 0.1582	831.5	5.87
303.15 K, x2 = 0.2378	837.7	5.03
303.15 K, x2 = 0.3573	848.1	4.03
303.15 K, x2 = 0.4381	855.9	3.49
303.15 K, x2 = 0.5589	869.1	2.87
303.15 K, x2 = 0.6488	880.2	2.53
303.15 K, x2 = 0.724	890.5	2.37
303.15 K, x2 = 0.8481	909.6	2.08
303.15 K, x2 = 0.9411	926.3	1.95
308.15 K, x2 = 0	817.1	6.61
308.15 K, x2 = 0.0813	822.4	5.73
308.15 K, x2 = 0.1582	827.9	4.96
308.15 K, x2 = 0.2378	834	4.31
308.15 K, x2 = 0.3573	844.3	3.51
308.15 K, x2 = 0.4381	852	3.08
308.15 K, x2 = 0.5589	865	2.57
308.15 K, x2 = 0.6488	876	2.3
308.15 K, x2 = 0.724	886.2	2.16
308.15 K, x2 = 0.8481	905.2	1.93
308.15 K, x2 = 0.9411	921.7	1.79
313.15 K, x2 = 0	813.6	5.6
313.15 K, x2 = 0.0813	818.9	4.85
313.15 K, x2 = 0.1582	824.2	4.2
313.15 K, x2 = 0.2378	830.2	3.68
313.15 K, x2 = 0.3573	840.3	3.04
313.15 K, x2 = 0.4381	847.9	2.71
313.15 K, x2 = 0.5589	860.8	2.33
313.15 K, x2 = 0.6488	871.6	2.13
313.15 K, x2 = 0.724	881.8	2.02
313.15 K, x2 = 0.8481	900.6	1.81
313.15 K, x2 = 0.9411	917.1	1.67
318.15 K, x2 = 0	810.1	4.78
318.15 K, x2 = 0.0813	815.3	4.18
318.15 K, x2 = 0.1582	820.5	3.67
318.15 K, x2 = 0.2378	826.4	3.22
318.15 K, x2 = 0.3573	836.4	2.66
318.15 K, x2 = 0.4381	844	2.37
318.15 K, x2 = 0.5589	856.7	2.03
318.15 K, x2 = 0.6488	867.4	1.85
318.15 K, x2 = 0.724	877.5	1.77
318.15 K, x2 = 0.8481	896.3	1.59
318.15 K, x2 = 0.9411	912.8	1.5
323.15 K, x2 = 0	806.5	4.1
323.15 K, x2 = 0.0813	811.6	3.61
323.15 K, x2 = 0.1582	816.8	3.2
323.15 K, x2 = 0.2378	822.7	2.84
323.15 K, x2 = 0.3573	832.6	2.4
323.15 K, x2 = 0.4381	840.1	2.17
323.15 K, x2 = 0.5589	852.8	1.9
323.15 K, x2 = 0.6488	863.6	1.75
323.15 K, x2 = 0.724	873.7	1.67
323.15 K, x2 = 0.8481	892.5	1.49
323.15 K, x2 = 0.9411	908.9	1.4
